According to US20230085307A1, “PYRIDAZINONE COMPOUND AND HERBICIDE” (NISSAN CHEMICAL CORPORATION, priority 2019, published 2023):

Tests used:
[1] = system: blackgrass; experiment: Test Example 5: herbicidal effect by foliage application, plastic box (Table 20, symbol J); format: in vivo, blackgrass (Alopecurus myosuroides); settings: foliage application, AAH 320 g/ha, evaluated three weeks after application
Method in brief: (§1)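 Sow seeds spot-wise in sterilized diluvial soil; cover with ~1.5 cm soil. Grow 14 days in greenhouse, 25° C. to 30° C. Spray foliage with emulsion diluted to predetermined amount. Rate effect after 3 weeks.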

[2] = system: late watergrass; experiment: Test Example 2: herbicidal activity, application during weed generation under submerged conditions (Table 17, symbol A); format: in vivo, late watergrass (Echinochloa oryzicola); settings: AAH 320 g/ha; application during weed generation, submerged conditions
Method in brief: (§2)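 Wagner pot, alluvial soil, 4 cm flood; mixed sowing of all species; greenhouse 25° C.–30° C. Emulsifiable formulation, water-diluted to predetermined dose, applied to paddy water at 1–2 leaf stage. Effect rated at 3 wk using the earlier test's scoring criteria.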

[3] = system: persian speedwell; experiment: Test Example 5: herbicidal effect by foliage application, plastic box (Table 20, symbol R); format: in vivo, Persian speedwell (Veronica persica); settings: foliage application, AAH 320 g/ha, evaluated three weeks after application
Method in brief: as §1

[4] = system: Italian ryegrass; experiment: Test Example 4: herbicidal effect by soil treatment (Table 19, symbol K); format: in vivo, Italian ryegrass (Lolium multiflorum); settings: amount of applied herbicide 320 g/ha
Method in brief: (§3)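 Applied as a water-diluted emulsion, the compound was sprayed onto soil covering newly sown seeds. Evaluation came three weeks after application, in a greenhouse held at 25° C. to 30° C.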

[5] = system: chickweed; experiment: Test Example 5: herbicidal effect by foliage application, plastic box (Table 20, symbol P); format: in vivo, common chickweed (Stellaria media); settings: foliage application, AAH 320 g/ha, evaluated three weeks after application
Method in brief: as §1

[6] = system: windgrass; experiment: Test Example 5: herbicidal effect by foliage application, plastic box (Table 20, symbol L); format: in vivo, windgrass (Apera spica-venti); settings: foliage application, AAH 320 g/ha, evaluated three weeks after application
Method in brief: as §1

[7] = system: chickweed; experiment: Test Example 4: herbicidal effect by soil treatment (Table 19, symbol P); format: in vivo, common chickweed (Stellaria media); settings: amount of applied herbicide 320 g/ha
Method in brief: as §3

[8] = system: green foxtail; experiment: Test Example 5: herbicidal effect by foliage application, plastic box (Table 20, symbol G); format: in vivo, green foxtail (Setaria viridis); settings: foliage application, AAH 320 g/ha, evaluated three weeks after application
Method in brief: as §1

[9] = system: rice flat sedge; experiment: Test Example 3: herbicidal effect by foliage application, Wagner pot (Table 18, symbol E); format: in vivo, rice flat sedge (Cyperus iria); settings: amount of applied herbicide 320 g/ha
Method in brief: (§4)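 Plants were sown in alluvial soil held under 0.1–0.5 cm standing water and grown 14 days in a greenhouse at 25–30 °C. An emulsifiable formulation, water-diluted to the set dose, was then sprayed onto the foliage, and effects were scored three weeks later using previously defined criteria.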

[10] = system: wild oat; experiment: Test Example 5: herbicidal effect by foliage application, plastic box (Table 20, symbol I); format: in vivo, wild oat (Avena fatua); settings: foliage application, AAH 320 g/ha, evaluated three weeks after application
Method in brief: as §1

[11] = system: redroot pigweed; experiment: Test Example 4: herbicidal effect by soil treatment (Table 19, symbol N); format: in vivo, redroot pigweed (Amaranthus retroflexus); settings: amount of applied herbicide 320 g/ha
Method in brief: as §3

[12] = system: velvetleaf; experiment: Test Example 5: herbicidal effect by foliage application, plastic box (Table 20, symbol M); format: in vivo, velvetleaf (Abutilon theophrasti); settings: foliage application, AAH 320 g/ha, evaluated three weeks after application
Method in brief: as §1

[13] = system: southern crabgrass; experiment: Test Example 4: herbicidal effect by soil treatment (Table 19, symbol F); format: in vivo, southern crabgrass (Digitaria ciliaris); settings: amount of applied herbicide 320 g/ha
Method in brief: as §3

[14] = system: wild oat; experiment: Test Example 4: herbicidal effect by soil treatment (Table 19, symbol I); format: in vivo, wild oat (Avena fatua); settings: amount of applied herbicide 320 g/ha
Method in brief: as §3

[15] = system: velvetleaf; experiment: Test Example 4: herbicidal effect by soil treatment (Table 19, symbol M); format: in vivo, velvetleaf (Abutilon theophrasti); settings: amount of applied herbicide 320 g/ha
Method in brief: as §3

[16] = system: green foxtail; experiment: Test Example 4: herbicidal effect by soil treatment (Table 19, symbol G); format: in vivo, green foxtail (Setaria viridis); settings: amount of applied herbicide 320 g/ha
Method in brief: as §3

[17] = system: Japanese bulrush; experiment: Test Example 2: herbicidal activity, application during weed generation under submerged conditions (Table 17, symbol B); format: in vivo, Japanese bulrush (Schoenoplectus juncoides); settings: AAH 320 g/ha; application during weed generation, submerged conditions
Method in brief: as §2

[18] = system: barnyard grass; experiment: Test Example 4: herbicidal effect by soil treatment (Table 19, symbol H); format: in vivo, barnyard grass (Echinochloa crus-galli); settings: amount of applied herbicide 320 g/ha
Method in brief: as §3

[19] = system: lambsquarters; experiment: Test Example 4: herbicidal effect by soil treatment (Table 19, symbol O); format: in vivo, lambsquarters (Chenopodium album); settings: amount of applied herbicide 320 g/ha
Method in brief: as §3

[20] = system: barnyard grass; experiment: Test Example 3: herbicidal effect by foliage application, Wagner pot (Table 18, symbol H); format: in vivo, barnyard grass (Echinochloa crus-galli); settings: amount of applied herbicide 320 g/ha
Method in brief: as §4

[21] = system: Italian ryegrass; experiment: Test Example 5: herbicidal effect by foliage application, plastic box (Table 20, symbol K); format: in vivo, Italian ryegrass (Lolium multiflorum); settings: foliage application, AAH 320 g/ha, evaluated three weeks after application
Method in brief: as §1

[22] = system: redroot pigweed; experiment: Test Example 5: herbicidal effect by foliage application, plastic box (Table 20, symbol N); format: in vivo, redroot pigweed (Amaranthus retroflexus); settings: foliage application, AAH 320 g/ha, evaluated three weeks after application
Method in brief: as §1

| SMILES | J: blackgrass, herbicidal effect (criteria 0-5) [1] | herbicidal effect rating, A: late watergrass [2] | R: persian speedwell, herbicidal effect (criteria 0-5) [3] | herbicidal effect on K: Italian ryegrass [4] | P: chickweed, herbicidal effect (criteria 0-5) [5] | L: windgrass, herbicidal effect (criteria 0-5) [6] | herbicidal effect on P: chickweed [7] | G: green foxtail, herbicidal effect (criteria 0-5) [8] | herbicidal effect on E: rice flat sedge [9] | I: wild oat, herbicidal effect (criteria 0-5) [10] | herbicidal effect on N: redroot pigweed [11] | M: velvetleaf, herbicidal effect (criteria 0-5) [12] | herbicidal effect on F: southern crabgrass [13] | herbicidal effect on I: wild oat [14] | herbicidal effect on M: velvetleaf [15] | herbicidal effect on G: green foxtail [16] | herbicidal effect rating, B: Japanese bulrush [17] | herbicidal effect on H: barnyard grass [18] | herbicidal effect on O: lambsquarters [19] | herbicidal effect on H: barnyard grass [20] | further results |
| --- | --- | --- | --- | --- | --- | --- | --- | --- | --- | --- | --- | --- | --- | --- | --- | --- | --- | --- | --- | --- | --- |
| C=C(C)C(=O)Oc1c(C)nn(C)c(=O)c1-c1c(-c2ccc(OC(F)F)cc2)sc2ccc(F)cc12 [2-281] | 4 (Herbicidal rate of 70% or more and less than 90%) | 5 (Herbicidal rate of 90% or more (almost completely withered)) | 5 (Herbicidal rate of 90% or more (almost completely withered)) | 5 (Herbicidal rate of 90% or more (almost completely withered)) | 5 (Herbicidal rate of 90% or more (almost completely withered)) | 5 (Herbicidal rate of 90% or more (almost completely withered)) | 4 (Herbicidal rate of 70% or more and less than 90%) | 4 (Herbicidal rate of 70% or more and less than 90%) | 5 (Herbicidal rate of 90% or more (almost completely withered)) | 4 (Herbicidal rate of 70% or more and less than 90%) | 5 (Herbicidal rate of 90% or more (almost completely withered)) | 5 (Herbicidal rate of 90% or more (almost completely withered)) | 3 (Herbicidal rate of 40% or more and less than 70%) | 0 (Herbicidal rate of 5% or less (almost no effect)) | 4 (Herbicidal rate of 70% or more and less than 90%) | 4 (Herbicidal rate of 70% or more and less than 90%) | 4 (Herbicidal rate of 70% or more and less than 90%) | 4 (Herbicidal rate of 70% or more and less than 90%) | 5 (Herbicidal rate of 90% or more (almost completely withered)) | 5 (Herbicidal rate of 90% or more (almost completely withered)) | K: Italian ryegrass, herbicidal effect (criteria 0-5) [21]: 5 (Herbicidal rate of 90% or more (almost completely withered)); N: redroot pigweed, herbicidal effect (criteria 0-5) [22]: 5 (Herbicidal rate of 90% or more (almost completely withered)) |
| Cc1nn(C)c(=O)c(-c2c(-c3ccc(OC(F)F)cc3)sc3ccc(F)cc23)c1OC(=O)COc1ccccc1 [2-284] | 5 (Herbicidal rate of 90% or more (almost completely withered)) | 3 (Herbicidal rate of 40% or more and less than 70%) | 5 (Herbicidal rate of 90% or more (almost completely withered)) | 5 (Herbicidal rate of 90% or more (almost completely withered)) | 5 (Herbicidal rate of 90% or more (almost completely withered)) | 4 (Herbicidal rate of 70% or more and less than 90%) | 4 (Herbicidal rate of 70% or more and less than 90%) | 5 (Herbicidal rate of 90% or more (almost completely withered)) | 5 (Herbicidal rate of 90% or more (almost completely withered)) | 4 (Herbicidal rate of 70% or more and less than 90%) | 5 (Herbicidal rate of 90% or more (almost completely withered)) | 5 (Herbicidal rate of 90% or more (almost completely withered)) | 4 (Herbicidal rate of 70% or more and less than 90%) | 3 (Herbicidal rate of 40% or more and less than 70%) | 5 (Herbicidal rate of 90% or more (almost completely withered)) | 5 (Herbicidal rate of 90% or more (almost completely withered)) | 3 (Herbicidal rate of 40% or more and less than 70%) | 5 (Herbicidal rate of 90% or more (almost completely withered)) | 5 (Herbicidal rate of 90% or more (almost completely withered)) | 5 (Herbicidal rate of 90% or more (almost completely withered)) | K: Italian ryegrass, herbicidal effect (criteria 0-5) [21]: 5 (Herbicidal rate of 90% or more (almost completely withered)); N: redroot pigweed, herbicidal effect (criteria 0-5) [22]: 5 (Herbicidal rate of 90% or more (almost completely withered)) |
| Cc1ccccc1C(=O)Oc1c(C)nn(C)c(=O)c1-c1c(-c2ccc(OC(F)F)cc2)sc2ccc(F)cc12 [2-285] | 4 (Herbicidal rate of 70% or more and less than 90%) | 3 (Herbicidal rate of 40% or more and less than 70%) | 5 (Herbicidal rate of 90% or more (almost completely withered)) | 2 (Herbicidal rate of 20% or more and less than 40%) | 5 (Herbicidal rate of 90% or more (almost completely withered)) | 0 (Herbicidal rate of 5% or less (almost no effect)) | 3 (Herbicidal rate of 40% or more and less than 70%) | 3 (Herbicidal rate of 40% or more and less than 70%) | 5 (Herbicidal rate of 90% or more (almost completely withered)) | 1 (Herbicidal rate of 5% or more and less than 20%) | 0 (Herbicidal rate of 5% or less (almost no effect)) | 5 (Herbicidal rate of 90% or more (almost completely withered)) | 0 (Herbicidal rate of 5% or less (almost no effect)) | 0 (Herbicidal rate of 5% or less (almost no effect)) | 0 (Herbicidal rate of 5% or less (almost no effect)) | 0 (Herbicidal rate of 5% or less (almost no effect)) | 3 (Herbicidal rate of 40% or more and less than 70%) | 0 (Herbicidal rate of 5% or less (almost no effect)) | 0 (Herbicidal rate of 5% or less (almost no effect)) | 5 (Herbicidal rate of 90% or more (almost completely withered)) | K: Italian ryegrass, herbicidal effect (criteria 0-5) [21]: 4 (Herbicidal rate of 70% or more and less than 90%); N: redroot pigweed, herbicidal effect (criteria 0-5) [22]: 5 (Herbicidal rate of 90% or more (almost completely withered)) |
